Measured values: US20090018194A1, “Use of antimicrobial agents derived from alliaceous plants for the prevention and control of crop diseases, post-harvest rot and as environmental disinifectant products” (DMC Research Center, S.L., priority 2007, published 2009)

Columns and labels:
[1] = test system: Trichoderma aureoviride CECT 20102; assay: agar diffusion test, commercial phytosanitaries; type: cell-based; conditions: incl. 6 mm disc
[2] = test system: Geotrichum candidum CECT 1902; assay: agar diffusion test, commercial phytosanitaries; type: cell-based; conditions: incl. 6 mm disc
[3] = test system: Penicillium italicum CECT 2294; assay: agar diffusion test with impregnated cellulose discs; type: cell-based; conditions: incl. 6 mm disc
[4] = test system: Rhizopus stolonifer ATCC 24862; assay: agar diffusion test, commercial phytosanitaries; type: cell-based; conditions: incl. 6 mm disc
[5] = test system: apples (Golden Delicious and Red Chief varieties); assay: phytotoxicity on treated apples; conditions: 450 ppm
[6] = test system: pears (Decana and Flor de Invierno varieties); assay: phytotoxicity on treated pears; conditions: 450 ppm
Botrytis cinerea [7] = assay: post-harvest rotting of inoculated pears, drencher treatment; type: in vivo; conditions: 450 ppm, 15 days of refrigeration at 5-6° C.
Experimental: (§1) The effectiveness of the active principle PTS (in various individual doses) was studied in the control of post-harvest rotting of pears and apples caused by the fungi Botrytis cinerea and Penicillium expansum, the principal agents of diseases in these fruits. These phytopathogens can appear in fruit being stored in a cold room and, once in the processing plant and in a later phase, form colonies and are transferred from one fruit to another by contact. The study was performed by means of a controlled inoculation test to ensure a high percentage of affected fruits, and to guarantee that this level of infection is with certainty caused by these pathogens, thereby making it possible to detect and evaluate significant differences between the different treatments. […] To perform the controlled inoculation, wild strains of Botrytris cinerea and Penicillium expansum were used which were isolated in fruit and vegetable processing plants. […] After the time indicated above had passed, the various post-harvest treatments were carried out by means of […] 25° C. for 60 seconds.

Penicillium expansum [8] = assay: as above; type: in vivo; conditions: 450 ppm, 15 days of refrigeration at 5-6° C.
Experimental: as §1

Botrytis cinerea [9] = assay: post-harvest rotting of inoculated apples, drencher treatment; type: in vivo; conditions: 450 ppm, 15 days of refrigeration at 5-6° C.
Experimental: as §1

Penicillium expansum [10] = assay: as above; type: in vivo; conditions: 450 ppm, 15 days of refrigeration at 5-6° C.
Experimental: as §1

Row | Molecule | diameter of the microbial inhibition halo ([1]; 4000 ppm active principle) | diameter of the microbial inhibition halo ([1]; 6000 ppm active principle) | diameter of the microbial inhibition halo ([2]; 4000 ppm active principle) | diameter of the microbial inhibition halo ([2]; 6000 ppm active principle) | diameter of the microbial inhibition halo ([3]; 4000 ppm active principle) | diameter of the microbial inhibition halo ([3]; 6000 ppm active principle) | diameter of the microbial inhibition halo ([4]; 4000 ppm active principle) | diameter of the microbial inhibition halo ([4]; 6000 ppm active principle) | other results
1 | c1ccc(-c2ccccc2)cc1 [Biphenyl] | 0 mm | 0 mm | 0 mm | 0 mm | 7 mm | 8 mm | 0 mm | 0 mm | 
2 | Oc1ccccc1-c1ccccc1 [o-pheynl phenol] | 40 mm | 42 mm | 45 mm | 47 mm | 45 mm | 45 mm | 14 mm | 15 mm | 
3 | imazalil sulfate [reference compound] |  |  |  |  |  |  |  |  | Phytotoxicity (number of damaged fruits) ([5]; Golden Delicious, fruit inoculated with Botrytis cinerea): 0; Phytotoxicity (number of damaged fruits) ([5]; Golden Delicious, fruit inoculated with Penicillium expansum): 0; Phytotoxicity (number of damaged fruits) ([5]; Red Chief, fruit inoculated with Botrytis cinerea): 0; Phytotoxicity (number of damaged fruits) ([5]; Red Chief, fruit inoculated with Penicillium expansum): 0; Phytotoxicity (number of damaged fruits) ([6]; Decana, fruit inoculated with Botrytis cinerea): 0; Phytotoxicity (number of damaged fruits) ([6]; Decana, fruit inoculated with Penicillium expansum): 0; Phytotoxicity (number of damaged fruits) ([6]; Flor de invierno, fruit inoculated with Botrytis cinerea): 0; Phytotoxicity (number of damaged fruits) ([6]; Flor de invierno, fruit inoculated with Penicillium expansum): 0; % of fruit affected (Botrytis cinerea [7]; Decana): 19%; % of fruit affected (Botrytis cinerea [7]; Flor de invierno): 24%; % of fruit affected (Penicillium expansum [8]; Decana): 4.5%; % of fruit affected (Penicillium expansum [8]; Flor de invierno): 6.7%; % of fruit affected (Botrytis cinerea [9]; Golden Delicious): 10%; % of fruit affected (Botrytis cinerea [9]; Red Chief): 12%; % of fruit affected (Penicillium expansum [10]; Golden Delicious): 4.3%; % of fruit affected (Penicillium expansum [10]; Red Chief): 6.2%
